Experimental data reported in patent publication US10428140B2, “Anti-EphA4 antibody” (EISAI R&D MANAGEMENT CO., LTD., priority 2015, dated 2019).

Target: T1, mouse EphA4 (binding to mouse Ephrin A1) (Mus musculus, UniProt Q03137)
T1 construct: made in house; host or cells: HEK293EBNA cells
Experiment: Mouse EphA4-mouse ligand binding inhibition ELISA (Ephrin A1-Fc)
Conditions: mouse Ephrin A1 and Ephrin B2; 0.03-1000 μM
Method: Antibody A obtained in Example 1 was evaluated for its inhibitory activity against the binding between mouse EphA4 and its mouse ligand according to the following steps. Each well of a 96-well plate (Nunc) was coated with an anti-alkaline phosphatase antibody (Thermo Fisher Scientific). After incubation overnight at 4° C., each well was blocked with 1% BlockAce (DS Pharma Biomedical) at room temperature for 1 hour. After washing with 0.05% Tween 20/PBS (Thermo Fisher Scientific) three times, the mouse EphA4 extracellular region-SEAP-His protein obtained by the method of Example 1 was added (final concentration: 10 nM) to each well and incubated at room temperature for 1 hour. After washing three times, ligands and serially diluted antibody A (0, 0.001, 0.003, 0.01, 0.03, 0.1, 0.3, 1,3, 10, 30, 100, 300, and 1000 nM) or a known EphA4 inhibitor KYL peptide (KYLPYWPVLSSL, 0, 0.003, 0.01, 0.03, 0.1, 0.3, 1, 3, 10, 30, and 100 μM, its synthesis was outsourced to Hokkaido System Science) or compound 1 (0, 0.03, 0.1, 0.3, 1,3, 10, 30, 100, 300, and 1000 μM, Formula 1, Matrix Scientific) were added to each well. The ligands used were mouse Ephrin A1-Fc chimera (R&D Systems, final concentration: 20 nM) and mouse Ephrin B2-Fc chimera (R&D Systems, final concentration: 0.6 nM). […] The absorbance at 450 nm was read using a microplate reader (Molecular Devices).

T1 sequence (Q03137 with tags, fused parts or gaps): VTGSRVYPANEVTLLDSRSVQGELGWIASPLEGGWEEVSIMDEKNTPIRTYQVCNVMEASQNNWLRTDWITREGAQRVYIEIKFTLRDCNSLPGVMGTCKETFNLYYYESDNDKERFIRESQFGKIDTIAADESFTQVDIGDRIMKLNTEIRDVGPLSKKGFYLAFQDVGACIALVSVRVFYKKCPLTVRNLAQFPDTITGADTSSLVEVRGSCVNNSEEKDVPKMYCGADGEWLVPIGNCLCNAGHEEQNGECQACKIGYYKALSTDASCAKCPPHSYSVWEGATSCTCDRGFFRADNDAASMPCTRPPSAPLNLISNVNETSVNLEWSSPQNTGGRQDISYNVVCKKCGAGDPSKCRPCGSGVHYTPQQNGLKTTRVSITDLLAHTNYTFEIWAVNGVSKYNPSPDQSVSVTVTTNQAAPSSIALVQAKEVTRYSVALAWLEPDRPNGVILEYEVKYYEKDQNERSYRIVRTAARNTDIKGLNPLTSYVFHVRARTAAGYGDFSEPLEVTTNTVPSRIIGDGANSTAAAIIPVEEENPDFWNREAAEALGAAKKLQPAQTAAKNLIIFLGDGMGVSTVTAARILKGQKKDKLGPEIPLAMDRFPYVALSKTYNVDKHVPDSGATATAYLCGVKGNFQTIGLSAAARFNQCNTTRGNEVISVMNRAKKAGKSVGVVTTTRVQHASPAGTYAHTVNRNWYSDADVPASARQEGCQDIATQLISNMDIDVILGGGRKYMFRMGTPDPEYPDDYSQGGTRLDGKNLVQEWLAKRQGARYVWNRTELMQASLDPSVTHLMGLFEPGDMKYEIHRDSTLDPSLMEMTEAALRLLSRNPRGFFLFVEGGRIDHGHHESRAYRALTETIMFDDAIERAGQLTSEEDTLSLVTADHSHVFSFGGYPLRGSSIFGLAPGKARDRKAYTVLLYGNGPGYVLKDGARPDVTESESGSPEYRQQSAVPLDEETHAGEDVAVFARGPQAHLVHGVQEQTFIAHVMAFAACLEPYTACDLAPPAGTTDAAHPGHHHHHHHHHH

## Cc1ccc(C)n1-c1ccc(C(=O)O)c(O)c1 [Compound 1, reference compound]
  inhibition of binding between mouse EphA4 and mouse ligand (in words): weaker activity, and no concentration dependence was found
